Data published in US20060276464A1, “Diarylsulfone sulfonamides and use thereof” (Wyeth, priority 2005, published 2006).

Legend:
SFRP-1 [1] = target: T1, SFRP-1 (Homo sapiens, UniProt Q8N474); assay: Fluorescence polarization binding assay (competitive displacement of a probe compound from SFRP-1); conditions: fluorescence anisotropy, 45 nM SFRP-1, 20 nM probe;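 note: test compound competes with a fluorescent probe held by SFRP-1, seen as a drop in probe anisotropy after incubation in darkness, with anisotropy as function of rising compound dose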
T1 sequence (Q8N474 32-314): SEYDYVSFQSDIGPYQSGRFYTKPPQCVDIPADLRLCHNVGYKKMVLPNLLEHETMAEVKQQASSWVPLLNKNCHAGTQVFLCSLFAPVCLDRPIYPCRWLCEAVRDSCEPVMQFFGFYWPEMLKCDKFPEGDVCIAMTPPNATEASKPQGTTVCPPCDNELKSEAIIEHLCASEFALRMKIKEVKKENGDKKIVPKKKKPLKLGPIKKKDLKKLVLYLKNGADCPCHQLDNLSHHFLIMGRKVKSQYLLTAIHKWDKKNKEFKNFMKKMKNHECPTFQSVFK

SFRP-1 [2] = target: T1, SFRP-1; assay: Cell-based assay for in vitro measurement of SFRP-1/SARP2 antagonist activity (U2OS cells co-transfected with 16x TCF-tk-Luciferase reporter, Wnt and hSFRP-1);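 note: U2OS cells co-transfected with a TCF-tk luciferase reporter, a Wnt vector, hSFRP-1 or empty vector and CMV-βgal, luciferase luminescence read in cell lysates alongside βgal activity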

IC50 (SFRP-1 [1]) [nM] | EC50 (SFRP-1 [2]) [nM] | Structure (SMILES)
600 | 2000 | CN(CCNS(=O)(=O)c1cc(S(=O)(=O)c2ccccc2)ccc1C(F)(F)F)C(=O)N[C@H]1CCCN(C(=O)OC(C)(C)C)C1 [Example 1010, tert-butyl (3S)-3-[({methyl[2-({[5-(phenylsulfonyl)-2-(trifluoromethyl)phenyl]sulfonyl}amino)ethyl]amino}carbonyl)amino]piperidine-1-carboxylate]
158 | 277 | O=S(=O)(N[C@H]1CC[C@H](O)CC1)c1cc(S(=O)(=O)c2ccccc2)ccc1C(F)(F)F [Example 1013, N-(trans-4-hydroxycyclohexyl)-5-(phenylsulfonyl)-2-(trifluoromethyl)benzenesulfonamide]
290 | 898 | O=S(=O)(NC1CCN(CCN2CCOCC2)CC1)c1cc(S(=O)(=O)c2ccccc2)ccc1C(F)(F)F [Example 1019, N-[1-(2-morpholin-4-ylethyl)piperidin-4-yl]-5-(phenylsulfonyl)-2-(trifluoromethyl)benzenesulfonamide]
600 | 264 | O=C(c1ccc(=O)n(S(=O)(=O)c2cc(S(=O)(=O)c3ccccc3)ccc2C(F)(F)F)c1)N1CCC(NS(=O)(=O)c2cc(S(=O)(=O)c3ccccc3)ccc2C(F)(F)F)CC1 [Example 1020, N-{1-[(6-oxo-1-{[5-(phenylsulfonyl)-2-(trifluoromethyl)phenyl]sulfonyl}-1,6-dihydropyridin-3-yl)carbonyl]piperidin-4-yl}-5-(phenylsulfonyl)-2-(trifluoromethyl)benzenesulfonamide]
200 | > 10000 | COc1ccc(CNS(=O)(=O)c2cc(S(=O)(=O)c3ccccc3)ccc2C(F)(F)F)c(OC)c1 [Example 1021, N-(2,4-dimethoxybenzyl)-5-(phenylsulfonyl)-2-(trifluoromethyl)benzenesulfonamide]
170 | 726 | CN(CCNS(=O)(=O)c1cc(S(=O)(=O)c2ccccc2)ccc1C(F)(F)F)C(=O)N[C@@H]1CCCNC1 [Example 1022, N-[2-(methyl{[(3R)-piperidin-3-ylamino]carbonyl}amino)ethyl]-5-(phenylsulfonyl)-2-(trifluoromethyl)benzenesulfonamide]
210 | 547 | CN(CCNS(=O)(=O)c1cc(S(=O)(=O)c2ccccc2)ccc1C(F)(F)F)C(=O)N[C@H]1CCCNC1 [Example 1023, N-[2-(methyl{[(3S)-piperidin-3-ylamino]carbonyl}amino)ethyl]-5-(phenylsulfonyl)-2-(trifluoromethyl)benzenesulfonamide]
200 | 236 | O=C(c1ccc(-c2ccccc2)nc1)N1CCC(NS(=O)(=O)c2cc(S(=O)(=O)c3ccccc3)ccc2C(F)(F)F)CC1 [Example 1024, N-{1-[(6-phenylpyridin-3-yl)carbonyl]piperidin-4-yl}-5-(phenylsulfonyl)-2-(trifluoromethyl)benzenesulfonamide]
60 | 87 | COC(=O)COc1ccc2c(c1)CC(NS(=O)(=O)c1cc(S(=O)(=O)c3ccccc3)ccc1C(F)(F)F)C2 (stereo not shown) [Example 1028, methyl{[2-({[5-(phenylsulfonyl)-2-(trifluoromethyl)phenyl]sulfonyl}amino)-2,3-dihydro-1H-inden-5-yl]oxy}acetate]
140 | 490 | O=C(c1ccnc(N2CCCC2)c1)N1CCC(NS(=O)(=O)c2cc(S(=O)(=O)c3ccccc3)ccc2C(F)(F)F)CC1 [Example 1029, 5-(phenylsulfonyl)-N-[1-(2-pyrrolidin-1-ylisonicotinoyl)piperidin-4-yl]-2-(trifluoromethyl)benzenesulfonamide]
500 | 1110 | O=S(=O)(NCc1ccc(Cl)nc1)c1cc(S(=O)(=O)c2ccccc2)ccc1C(F)(F)F [Example 1030, N-[(6-chloropyridin-3-yl)methyl]-5-(phenylsulfonyl)-2-(trifluoromethyl)benzenesulfonamide]
